# Experimental data reported in ChEMBL document CHEMBL3297657, “Synthesis and antitumor activities of novel α-aminophosphonate derivatives containing an alizarin moiety” (Eur J Med Chem, 2014).
# Calls of active or inactive are those of the source. The rule behind the calls is not given here.
# How the values were obtained:
# KB = test: Cytotoxicity against human KB cells after 48 hrs by MTT assay; type: functional, cell-based
# HUVEC = test: Cytotoxicity against HUVEC after 48 hrs by MTT assay; type: cell-based; settings: Homo sapiens
# NCI-H460 [1] = test: Induction of apoptosis in human NCI-H460 cells assessed as change in mitochondrial membrane potential at 5 to 20 uM after 24 hrs by JC-1 staining-based fluorescence microscopy relative to control; type: functional, cell-based
# NCI-H460 [2] = test: Induction of apoptosis in human NCI-H460 cells assessed as change in mitochondrial membrane potential at 8 uM by JC-1 staining-based fluorescence microscopy relative to control; type: functional, cell-based; settings: TDE = time-dependent effect
# NCI-H460 [3] = test: Induction of apoptosis in human NCI-H460 cells assessed as karyopyknosis and chromatin condensation at 5 to 20 uM after 24 hrs by Hoechst 33258 staining-based fluorescence microscopy relative to control; type: functional, cell-based
# NCI-H460 [4] = test: Induction of apoptosis in human NCI-H460 cells assessed as early apoptotic cells at 8 uM after 12 hrs by Annexin V/propidium iodide staining-based flow cytometry (reference value: 6.8%); type: functional
# NCI-H460 [5] = test: Induction of apoptosis in human NCI-H460 cells assessed as early apoptotic cells at 5 uM after 24 hrs by Annexin V/propidium iodide staining-based flow cytometry (reference value: 6.8%); type: functional
# NCI-H460 [6] = test: Induction of apoptosis in human NCI-H460 cells assessed as late apoptotic cells at 8 uM after 12 hrs by Annexin V/propidium iodide staining-based flow cytometry (reference value: 14.1%); type: functional
# NCI-H460 [7] = test: Induction of apoptosis in human NCI-H460 cells assessed as necrotic cells at 8 uM after 12 hrs by Annexin V/propidium iodide staining-based flow cytometry (reference value: 6.9%); type: functional
# NCI-H460 [8] = test: Induction of apoptosis in human NCI-H460 cells assessed as necrotic cells at 5 uM after 24 hrs by Annexin V/propidium iodide staining-based flow cytometry (reference value: 6.9%); type: functional
# NCI-H460 [9] = test: Induction of apoptosis in human NCI-H460 cells assessed as necrotic cells at 10 uM after 24 hrs by Annexin V/propidium iodide staining-based flow cytometry (reference value: 6.9%); type: functional
# NCI-H460 [10] = test: Induction of apoptosis in human NCI-H460 cells assessed as viable cells at 8 uM after 12 hrs by Annexin V/propidium iodide staining-based flow cytometry (reference value: 72.2%); type: functional; settings: NCI-H460, 12 h, read-out: Activity
# NCI-H460 [11] = test: Induction of apoptosis in human NCI-H460 cells assessed as viable cells at 8 uM after 24 hrs by Annexin V/propidium iodide staining-based flow cytometry (reference value: 72.2%); type: functional; settings: NCI-H460, 24 h, read-out: Activity
# NCI-H460 [12] = test: Induction of apoptosis in human NCI-H460 cells assessed as viable cells at 8 uM after 48 hrs by Annexin V/propidium iodide staining-based flow cytometry (reference value: 72.2%); type: functional; settings: NCI-H460, 48 h, read-out: Activity
# NCI-H460 [13] = test: Induction of apoptosis in human NCI-H460 cells assessed as viable cells at 5 uM after 24 hrs by Annexin V/propidium iodide staining-based flow cytometry (reference value: 72.2%); type: functional; settings: NCI-H460, 24 h, read-out: Activity
# NCI-H460 [14] = test: Induction of apoptosis in human NCI-H460 cells assessed as viable cells at 10 uM after 24 hrs by Annexin V/propidium iodide staining-based flow cytometry (reference value: 72.2%); type: functional; settings: NCI-H460, 24 h, read-out: Activity
# NCI-H460 [15] = test: Induction of apoptosis in human NCI-H460 cells assessed as necrotic cells at 8 uM by Annexin V/propidium iodide staining-based flow cytometry; type: functional, cell-based; settings: TDE = time-dependent effect
# NCI-H460 [16] = test: Induction of apoptosis in human NCI-H460 cells assessed as viable cells after 24 hrs by Annexin V/propidium iodide staining-based flow cytometry; type: functional, cell-based
# NCI-H460 [17] = test: Induction of apoptosis in human NCI-H460 cells assessed as viable cells at 8 uM by Annexin V/propidium iodide staining-based flow cytometry; type: functional, cell-based; settings: TDE = time-dependent effect
# NCI-H460 [18] = test: Induction of apoptosis in human NCI-H460 cells assessed as early apoptotic cells at 5 to 20 uM after 24 hrs by Annexin V/propidium iodide staining-based flow cytometry relative to control; type: functional, cell-based
# NCI-H460 [19] = test: Cell cycle arrest in human NCI-H460 cells assessed as accumulation at G1 phase at 8 uM after 24 hrs by Rnase A/propidium iodide staining-based flow cytometry (reference value: 46.69%); type: functional
# NCI-H460 [20] = test: Cell cycle arrest in human NCI-H460 cells assessed as accumulation at G1 phase at 10 uM after 48 hrs by Rnase A/propidium iodide staining-based flow cytometry (reference value: 46.69%); type: functional
# NCI-H460 [21] = test: Cell cycle arrest in human NCI-H460 cells assessed as accumulation at G1 phase at 20 uM after 48 hrs by Rnase A/propidium iodide staining-based flow cytometry (reference value: 46.69%); type: functional
# NCI-H460 [22] = test: Cell cycle arrest in human NCI-H460 cells assessed as accumulation at S phase at 8 uM after 48 hrs by Rnase A/propidium iodide staining-based flow cytometry (reference value: 19.41%); type: functional
# NCI-H460 [23] = test: Cell cycle arrest in human NCI-H460 cells assessed as accumulation at S phase at 10 uM after 48 hrs by Rnase A/propidium iodide staining-based flow cytometry (reference value: 19.41%); type: functional
# NCI-H460 [24] = test: Cell cycle arrest in human NCI-H460 cells assessed as accumulation at S phase at 20 uM after 48 hrs by Rnase A/propidium iodide staining-based flow cytometry (reference value: 19.41%); type: functional
# NCI-H460 [25] = test: Cell cycle arrest in human NCI-H460 cells assessed as accumulation at G2 phase at 8 uM after 12 hrs by Rnase A/propidium iodide staining-based flow cytometry (reference value: 33.9%); type: functional
# NCI-H460 [26] = test: Cell cycle arrest in human NCI-H460 cells assessed as accumulation at G2 phase at 10 uM after 48 hrs by Rnase A/propidium iodide staining-based flow cytometry (reference value: 33.9%); type: functional
# NCI-H460 [27] = test: Cell cycle arrest in human NCI-H460 cells assessed as accumulation at G2 phase at 20 uM after 48 hrs by Rnase A/propidium iodide staining-based flow cytometry (reference value: 33.9%); type: functional
# NCI-H460 [28] = test: Induction of apoptosis in human NCI-H460 cells assessed as caspase-3 activation after 24 hrs by qRT-PCR analysis; type: functional, cell-based
# NCI-H460 [29] = test: Induction of apoptosis in human NCI-H460 cells assessed as caspase-4 activation after 24 hrs by qRT-PCR analysis; type: functional, cell-based
# NCI-H460 [30] = test: Induction of apoptosis in human NCI-H460 cells assessed as upregulation of TP53 mRNA expression after 24 hrs by qRT-PCR analysis; type: functional, cell-based
# NCI-H460 [31] = test: Induction of apoptosis in human NCI-H460 cells assessed as upregulation of CAMK1 mRNA expression after 24 hrs by qRT-PCR analysis; type: functional, cell-based
# NCI-H460 [32] = test: Induction of apoptosis in human NCI-H460 cells assessed as upregulation of CAMK2 mRNA expression after 24 hrs by qRT-PCR analysis; type: functional, cell-based
# NCI-H460 [33] = test: Induction of apoptosis in human NCI-H460 cells assessed as increase in intracellular calcium release at 5 to 20 uM after 24 hrs by Fluo-3/AM staining-based fluorescence microscopy; type: functional, cell-based
# HeLa = test: cells; settings: Homo sapiens, 48 h
# Description: Cytotoxicity against human HeLa cells after 48 hrs by MTT assay
# HepG2 = test: cells; settings: Homo sapiens, HepG2, 48 h
# Description: Cytotoxicity against human HepG2 cells after 48 hrs by MTT assay
Compound,IC50 (KB) [µM],IC50 (HUVEC) [µM],Activity (NCI-H460 [1]),Activity (NCI-H460 [2]),Activity (NCI-H460 [3]),Activity (NCI-H460 [4]) [%],Activity (NCI-H460 [5]) [%],Activity (NCI-H460 [6]) [%],Activity (NCI-H460 [7]) [%],Activity (NCI-H460 [8]) [%],Activity (NCI-H460 [9]) [%],viability at 8 µM (NCI-H460 [10]) [%],viability at 8 µM (NCI-H460 [11]) [%],viability at 8 µM (NCI-H460 [12]) [%],viability at 5 µM (NCI-H460 [13]) [%],viability at 10 µM (NCI-H460 [14]) [%],Activity (NCI-H460 [15]),Activity (NCI-H460 [16]),Activity (NCI-H460 [17]),Activity (NCI-H460 [18]),other results
CCOP(=O)(OCC)C(NC(=O)C(C)Oc1ccc2c(c1O)C(=O)c1ccccc1C2=O)c1ccccc1OC (stereo unspecified),0.88,> 50,Active,tde,Active,21.9,26.6,5.6,0.7,2.8,8.4,71.9,47.5,28.2,62.1,41.4,tde,Dose-dependent effect,tde,Active,Activity (NCI-H460 [19]): 64.92%; Activity (NCI-H460 [20]): 60.79%; Activity (NCI-H460 [21]): 65.1%; Activity (NCI-H460 [22]): 8.87%; Activity (NCI-H460 [23]): 9.84%; Activity (NCI-H460 [24]): 11.81%; Activity (NCI-H460 [25]): 27.54%; Activity (NCI-H460 [26]): 29.38%; Activity (NCI-H460 [27]): 23.09%; Activity (NCI-H460 [28]): Dose-dependent effect; Activity (NCI-H460 [29]): Dose-dependent effect; Activity (NCI-H460 [30]): Dose-dependent effect; Activity (NCI-H460 [31]): Dose-dependent effect; Activity (NCI-H460 [32]): Dose-dependent effect; Activity (NCI-H460 [33]): Active; IC50 (HeLa): 28.2 µM; IC50 (HepG2): 88.2 µM
CCOP(=O)(OCC)C(NC(=O)C(C)Oc1ccc2c(c1O)C(=O)c1ccccc1C2=O)c1cccc2ccccc12 (stereo unspecified),1.02,40.5,Active,tde,Active,19.9,10.9,8.3,0.9,1.4,1.1,70.9,47.5,26.6,71.4,44.6,tde,Dose-dependent effect,tde,Active,Activity (NCI-H460 [19]): 66.33%; Activity (NCI-H460 [20]): 59.86%; Activity (NCI-H460 [21]): 61.6%; Activity (NCI-H460 [22]): 0.41%; Activity (NCI-H460 [23]): 15.41%; Activity (NCI-H460 [24]): 17.06%; Activity (NCI-H460 [25]): 34.32%; Activity (NCI-H460 [26]): 24.74%; Activity (NCI-H460 [27]): 21.34%; Activity (NCI-H460 [28]): Dose-dependent effect; Activity (NCI-H460 [29]): Dose-dependent effect; Activity (NCI-H460 [30]): Dose-dependent effect; Activity (NCI-H460 [31]): Dose-dependent effect; Activity (NCI-H460 [32]): Dose-dependent effect; Activity (NCI-H460 [33]): Active; IC50 (HeLa): 15 µM; IC50 (HepG2): 40.5 µM
CCOP(=O)(OCC)C(NC(=O)C(C)Oc1ccc2c(c1O)C(=O)c1ccccc1C2=O)c1ccccc1F (stereo unspecified),0.7,21,Active,tde,Active,30.3,28.9,7.9,0.5,0.3,0.8,61.3,46.3,31.1,61.6,36.2,tde,Dose-dependent effect,tde,Active,Activity (NCI-H460 [19]): 60.05%; Activity (NCI-H460 [20]): 65.81%; Activity (NCI-H460 [21]): 68.89%; Activity (NCI-H460 [22]): 10.87%; Activity (NCI-H460 [23]): 13.42%; Activity (NCI-H460 [24]): 11.25%; Activity (NCI-H460 [25]): 29.57%; Activity (NCI-H460 [26]): 20.77%; Activity (NCI-H460 [27]): 20.06%; Activity (NCI-H460 [28]): Dose-dependent effect; Activity (NCI-H460 [29]): Dose-dependent effect; Activity (NCI-H460 [30]): Dose-dependent effect; Activity (NCI-H460 [31]): Dose-dependent effect; Activity (NCI-H460 [32]): Dose-dependent effect; Activity (NCI-H460 [33]): Active; IC50 (HeLa): 21.1 µM; IC50 (HepG2): 21 µM
